Laboratory results: paper PMC8954350, “Non-Canonical Cannabinoid Receptors with Distinct Binding and Signaling Properties in Prostate and Other Cancer Cell Types Mediate Cell Death” (International Journal of Molecular Sciences, 2022)

Experiments:
[1] = tested on: DU-145 cells; assay: ATP-dependent cell viability, DU-145 cells; type: cell-based, human; details: 24 h
Protocol: Adenosine 5′-triphosphate (ATP) levels were quantified as a measure of DU-145 cell viability in response to cannabinoid treatement using an ATP-luciferase-based bioluminescence assay kit (CellTiter-Glo®, Sigma, MO, USA) and BioTek microplate reader (Winooski, VT, USA). DU-145 cells were seeded at a density of 8 × 10^3 cells/well in a 96-well plate and incubated for 24 h at 37 °C with 5% CO2. The next day, cells were treated with either vehicle or experimental drugs (10 or 50 μM) and incubated for another 24 h at 37 °C with 5% CO2. ATP levels were assessed following incubation by interpolation from an ATP standard curve according to the manufacturer’s protocol, as described previously.

[2] = target: T1, human CB2 receptors (Homo sapiens, UniProt P34972); assay: Competition binding, CHO-hCB2 membranes; details: membranes from CHO cells stably expressing human CB2
T1 construct: expressed in transfected cells
Protocol: (§1) The assay was performed as previously detailed. […] All binding reactions were conducted in triplicate, in a final volume of 1 mL, and, following mixing, were incubated for 20 min in a 37 °C water bath to achieve equilibrium. After incubation, reactions were terminated by rapid vacuum filtration and processed for radioactivity, as detailed in Section 4.5.1.
(§2) Curve-fitting and all statistical analyses were performed using GraphPad Prism® v8.0g (GraphPad Software, Inc.; San Diego, CA, USA). […] For CBR screening studies, a one-sample t-test was performed to determine differences from 100% (e.g., to quantify compounds producing displacement), followed by a one-way ANOVA and Tukey’s post hoc tests to compare displacement produced by all drugs. […] To compare specific CBR affinity (Ki) between ligands, non-linear regression analysis was employed to determine experimental IC50 values from competition receptor binding assays, which were then converted to Ki values using the Cheng–Prusoff equation [35]. […] For LDH release, ATP-dependent cell viability and JC-1 staining assays, drug effects were first analyzed by a one-sample t-test to determine differences from 0 or 100% (vehicle), followed by a one-way ANOVA and Dunnett’s post hoc test to compare all means. […]

[3] = target: T2, human CB1 receptors (Homo sapiens, UniProt P21554); assay: Competition binding, CHO-hCB1 membranes; details: membranes from CHO cells stably expressing human CB1
T2 construct: host or cells: CHO
Protocol: as §1, §2

[4] = tested on: NPrEC; assay: LDH cytotoxicity, NPrEC cells; type: cell-based; details: NPrEC immortalized non-cancerous cell line
[5] = target: non-canonical CBRs expressed in C6-glioma; assay: Homologous receptor binding, C6-glioma; design: species or system mouse; details: homologous competition with [^3H]WIN-55,212-2 (1 nM), read-out: affinity (KD)
Protocol: (§3) All binding reactions were conducted in triplicate, in a final volume of 1 mL, and, following mixing, were incubated for 20 min in a 37 °C water bath to achieve equilibrium. After incubation, reactions were terminated by rapid vacuum filtration and processed for radioactivity, as detailed in Section 4.5.1.
(§4) Curve-fitting and all statistical analyses were performed using GraphPad Prism® v8.0g (GraphPad Software, Inc.; San Diego, CA, USA). For qRT-PCR experiments, a one-way ANOVA, followed by Dunnett’s test as a post hoc test was utilized to compare fold change of PC-3 and DU-145 cancer cells to an arbitrary value of 1, set to the amount of mRNA transcribed from a human normal prostate control. For CBR screening studies, a one-sample t-test was performed to determine differences from 100% (e.g., to quantify compounds producing displacement), followed by a one-way ANOVA and Tukey’s post hoc tests to compare displacement produced by all drugs. […] For LDH release, ATP-dependent cell viability and JC-1 staining assays, drug effects were first analyzed by a one-sample t-test to determine differences from 0 or 100% (vehicle), followed by a one-way ANOVA and Dunnett’s post hoc test to compare all means. […]

[6] = tested on: CBRs expressed in HeLa cells; assay: [^3H]CP-55,940 competitive binding screen, HeLa membranes; design: species or system human; details: 1 μM ligand, 0.2 nM radioligand
Protocol: (§5) The assay was conducted as previously detailed. […] All binding reactions were conducted in triplicate, in a final volume of 1 mL, and, following mixing, were incubated for 20 min in a 37 °C water bath to achieve equilibrium. After incubation, reactions were terminated by rapid vacuum filtration through Whatman GF/B glass fiber filters (Brandel; Gaithersburg, MD, USA), followed by three washes of 4 mls of ice-cold filtration buffer (50 mM Tris, pH 7.4, and 0.05% bovine serum albumin). Samples were punched out from filter papers into scintillation vials, to which 4 mls of ScintiverseTM-BDR cocktail scintillation fluid (Fisher Scientific; Hampton, NH, USA) was added. Filters were incubated at room temperature for 24 h in scintillation fluid, vortexed, and radioactivity (measured as DPMs) was quantified via a liquid scintillation spectrophotometer (Tri Carb 2100 TR Liquid Scintillation Analyzer, Packard Instruments, Meriden, CT, USA).

[7] = target: non-canonical CBRs expressed in PC-3; assay: Homologous receptor binding, PC-3; design: species or system human; details: homologous competition with [^3H]WIN-55,212-2 (1 nM), read-out: affinity (KD)
Protocol: as §3, §4

[8] = tested on: CBRs expressed in PC-3 cells; assay: [^3H]CP-55,940 competitive binding screen, PC-3 membranes; design: species or system human; details: 1 μM ligand, 0.2 nM radioligand
Protocol: as §5

[9] = tested on: CBRs expressed in DU-145 cells; assay: [^3H]CP-55,940 competitive binding screen, DU-145 membranes; design: species or system human; details: 1 μM ligand, 0.2 nM radioligand
Protocol: as §5

[10] = target: non-canonical CBRs expressed in PC-12; assay: Homologous receptor binding, PC-12; design: species or system rat; details: homologous competition with [^3H]WIN-55,212-2 (1 nM), read-out: affinity (KD)
Protocol: as §3, §4

[11] = tested on: CBRs expressed in HeLa cells; assay: [^3H]WIN-55,212-2 competitive binding screen, HeLa membranes; design: species or system human; details: 1 μM ligand, 1 nM radioligand
Protocol: as §5

[12] = tested on: CBRs expressed in PC-12 cells; assay: [^3H]WIN-55,212-2 competitive binding screen, PC-12 membranes; design: species or system rat; details: 1 μM ligand, 1 nM radioligand
Protocol: as §5

T2 sequence (P21554 whole entry): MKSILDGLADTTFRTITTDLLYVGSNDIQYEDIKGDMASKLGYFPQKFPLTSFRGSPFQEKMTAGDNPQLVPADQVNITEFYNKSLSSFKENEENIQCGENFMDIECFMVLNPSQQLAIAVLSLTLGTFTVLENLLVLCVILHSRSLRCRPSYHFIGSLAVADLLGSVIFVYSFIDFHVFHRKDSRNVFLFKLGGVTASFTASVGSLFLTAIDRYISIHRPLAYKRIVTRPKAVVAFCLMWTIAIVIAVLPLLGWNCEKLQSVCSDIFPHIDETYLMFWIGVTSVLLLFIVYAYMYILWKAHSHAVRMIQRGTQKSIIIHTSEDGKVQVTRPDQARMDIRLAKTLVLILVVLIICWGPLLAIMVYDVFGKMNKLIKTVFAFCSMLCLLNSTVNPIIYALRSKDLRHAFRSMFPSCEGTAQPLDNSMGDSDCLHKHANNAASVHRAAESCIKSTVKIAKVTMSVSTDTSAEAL
T1 sequence (P34972 whole entry): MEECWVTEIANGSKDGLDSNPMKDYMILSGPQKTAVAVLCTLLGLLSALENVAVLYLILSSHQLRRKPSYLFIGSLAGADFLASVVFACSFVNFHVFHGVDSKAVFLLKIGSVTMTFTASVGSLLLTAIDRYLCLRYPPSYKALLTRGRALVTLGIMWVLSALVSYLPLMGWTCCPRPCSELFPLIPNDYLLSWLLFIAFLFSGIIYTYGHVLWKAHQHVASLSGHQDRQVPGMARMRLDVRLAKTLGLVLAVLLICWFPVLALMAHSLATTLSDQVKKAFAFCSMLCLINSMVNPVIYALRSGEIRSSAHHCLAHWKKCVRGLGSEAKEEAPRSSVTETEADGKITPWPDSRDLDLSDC

COc1ccc2c(c1)c(CCN1CCOCC1)c(C)n2C(=O)c1cccc(Cl)c1Cl [GW-405833]
reduction in ATP-dependent cell viability (ATP levels) ([1]; 50 μM): 68.8 ± 4.95% | concentration-dependent effect on ATP-dependent viability ([1]; 10–50 μM): only produced ATP-dependent reductions in cell viability at the highest 50 μM concentration | Ki [2]: 0.051 µM | Ki [3]: 0.747 µM | LDH release [4]: 46.4 ± 6.4%

Cc1c(C(=O)c2cccc3ccccc23)c2cccc3c2n1[C@H](CN1CCOCC1)CO3 [WIN-55,212-2]
Kd [5]: 0.0161 ± 0.0025 µM | displacement of [^3H]CP-55,940 [6]: neither the non-selective CBR ligand CP-55,940 nor WIN-55,212-2 produced significant displacement | Kd [7]: 0.0084 ± 0.0021 µM | displacement of [^3H]CP-55,940 [8]: neither the non-selective CBR ligand CP-55,940 nor WIN-55,212-2 produced significant displacement | displacement of [^3H]CP-55,940 [9]: neither the non-selective CBR ligand CP-55,940 nor WIN-55,212-2 produced significant displacement | Kd [10]: 0.0126 ± 0.0027 µM | displacement of [^3H]WIN-55,212-2 (Figure 1B) [11]: significantly displaced | displacement of [^3H]WIN-55,212-2 (Figure 1B) [12]: significantly displaced
